Test results: US20240139220A1, “TREATMENT OF HPV INFECTION” (priority 2022, published 2024)

Legend:
Type in all cases: physicochemical
[1] = Bulk stability, accelerated storage for one week (HPLC, XRPD); details: for Bulk (XRPD) / Color / Purity, Bulk (HPLC): 1 week
Experimental: Bulk stability: Accelerated stability experiments were conducted at 25° C./92% RH and 40° C./75% RH in an open container, 60° C. in a tight container for one week.
Samples were characterized by XRPD and HPLC and inspected for color change.
Accelerated stability experiments were conducted at 25° C./92% RH in an open container, at 40° C./75% RH in an open container, and at 60° C. in a tight container for one week.

[2] = Solubility in buffers, water and simulated vaginal fluid at 37° C.
Experimental: About 4 mg of Compound I Pattern 1 was added into 2 mL of buffer solution.
(§1) Solubility was tested in five media, pH 3.0 citrate buffer, pH 4.5 acetate buffer, pH 6.8 phosphate buffer, water, simulated vaginal fluid (pH 4.2) at 37° C. for 0.5 h and 2 h.
The salt amount used is equivalent to 10 mg anhydrous free base. […] The obtained clear solutions were analyzed by pH meter for pH, and solubility was determined by observation.
as §1

[3] = Hygroscicity by Dynamic Vapor Sorption (DVS) at 25° C.; details: for D. (%) Cycle 1 (Desorption) / D. (%) Cycle 2 (Desorption) / S. (%) Cycle 1 (Sorption) / S. (%) Cycle 2 (Sorption) / XRPD after DVS test: 25° C.
Experimental: Hygroscopicity was investigated by DVS at 25° C., using the following method: […]

[4] = Polymorph screening by equilibration in solvents at 25° C. (XRPD)
[5] = 25° C., 92% RH, open container, one week
[6] = 40° C., 75% RH, open container, one week
[7] = 60° C., tight container, one week
[8] = Simulated vaginal fluid (pH adjusted with 0.2N NaOH)
[9] = BS1: solid state, 25° C./92% RH, open container
[10] = BS2: solid state, 40° C./75% RH, open container
[11] = BS3: solid state, 60° C., tight container
[12] = ES1: pH 3.0, 100 mM citrate buffer
[13] = ES2: pH 4.5, 50 mM acetate buffer
[14] = ES3: pH 6.8, 50 mM phosphate buffer
[15] = ES5: Simulated vaginal fluid (pH adjusted by 0.1N NaOH)

## CCOC(=O)C(C)NP(=O)(COCCn1cnc2c(OC)nc(N)nc21)OCc1ccccc1 (mixture of isomers) [Compound I free base Pattern 1]
[1]; 25° C., 84% RH, open container, 2 days
  XRPD: No change
[1]; [5]
  HPLC (chemical purity): 98.5%
  XRPD: No change
[1]; [6]
  HPLC (chemical purity): 95.2%
  XRPD: No change
[1]; [7]
  HPLC (chemical purity): 98.5%
  XRPD: No change
[1]; Initial
  HPLC (chemical purity): 98.7%
[2]; [8]
  Solubility 0.5 hrs: >2000 µg/mL
  Solubility 2 hrs: >2000 µg/mL
  pH at 2 hrs: (5.53)
[2]; Water
  Solubility 0.5 hrs: >2000 µg/mL
  Solubility 2 hrs: >2000 µg/mL
  pH at 2 hrs: (7.55)
[2]; pH 3.0 100 mM citrate buffer
  Solubility 0.5 hrs: >2000 µg/mL
  Solubility 2 hrs: >2000 µg/mL
  pH at 2 hrs: (2.98)
[2]; pH 4.5 50 mM acetate buffer
  Solubility 0.5 hrs: >2000 µg/mL
  Solubility 2 hrs: >2000 µg/mL
  pH at 2 hrs: (4.50)
[2]; pH 6.8 50 mM phosphate buffer
  Solubility 0.5 hrs: >2000 µg/mL
  Solubility 2 hrs: >2000 µg/mL
  pH at 2 hrs: (6.81)
[3]; 0% RH
  D. (%) Cycle 1 (Desorption): 0.00%
  D. (%) Cycle 2 (Desorption): 0.19%
  S. (%) Cycle 1 (Sorption): 0.00%
  S. (%) Cycle 2 (Sorption): 0.19%
[3]; 10% RH
  D. (%) Cycle 1 (Desorption): 0.11%
  D. (%) Cycle 2 (Desorption): 0.37%
  S. (%) Cycle 1 (Sorption): 0.08%
  S. (%) Cycle 2 (Sorption): 0.22%
[3]; 20% RH
  D. (%) Cycle 1 (Desorption): 0.23%
  D. (%) Cycle 2 (Desorption): 0.57%
  S. (%) Cycle 1 (Sorption): 0.17%
  S. (%) Cycle 2 (Sorption): 0.30%
[3]; 30% RH
  D. (%) Cycle 1 (Desorption): 0.47%
  D. (%) Cycle 2 (Desorption): 0.83%
  S. (%) Cycle 1 (Sorption): 0.28%
  S. (%) Cycle 2 (Sorption): 0.44%
[3]; 40% RH
  D. (%) Cycle 1 (Desorption): 0.60%
  D. (%) Cycle 2 (Desorption): 1.09%
  S. (%) Cycle 1 (Sorption): 0.41%
  S. (%) Cycle 2 (Sorption): 0.62%
[3]; 50% RH
  D. (%) Cycle 2 (Desorption): 1.48%
  S. (%) Cycle 1 (Sorption): 0.61%
[3]; 60% RH
  D. (%) Cycle 2 (Desorption): 1.96%
  S. (%) Cycle 1 (Sorption): 0.85%
[3]; 70% RH
  D. (%) Cycle 2 (Desorption): 2.78%
  S. (%) Cycle 1 (Sorption): 1.14%
[3]; 80% RH
  D. (%) Cycle 2 (Desorption): 4.33%
  S. (%) Cycle 1 (Sorption): 1.64%
[3]; 90% RH
  D. (%) Cycle 2 (Desorption): 9.10%
  S. (%) Cycle 1 (Sorption): 4.27%
[3]; 95% RH
  D. (%) Cycle 2 (Desorption): 14.32%
  S. (%) Cycle 1 (Sorption): 14.32%
[3]; cycle 40-0-95-0-40% RH
  XRPD after DVS test: No form change,
[3]; up to 90% RH, DVS 25° C.
  Water uptake: about 4.3%
[3]; up to 95% RH, DVS 25° C.
  Water uptake: about 14.3%

## CCOC(=O)C(C)NP(=O)(COCCn1cnc2c(OC)nc(N)nc21)OCc1ccccc1.O=C(O)C=CC(=O)O (centres unmarked) [Compound III Pattern 2]
[1]; 25° C./92% RH open, 40° C./75% RH open, 60° C. tight container, one week
  Stability after exposure to the three conditions: good physical stability
[1]; 40° C./75% RH in an open container, one week
  Degradation product increase: 1.6%
[1]; 60° C. in a tight container, one week
  Degradation product increase: 1.5%
[1]; [9]
  Bulk (XRPD): No form change
  Color: No change
  Purity, Bulk (HPLC): 98.7%
[1]; [10]
  Bulk (XRPD): No form change (One
  Color: No change
  Purity, Bulk (HPLC): 97.2%
[1]; [11]
  Bulk (XRPD): No form change (One
  Color: No change
  Purity, Bulk (HPLC): 97.3%
[1]; before storage
  Initial HPLC purity: 98.8%
[2]; [12]
  Solubility 0.5 hours: >2000 µg/mL
  Solubility 2 hours: > 2000 µg/mL
  pH of solution, 2 hours: 2.83
[2]; [13]
  Solubility 0.5 hours: >2000 µg/mL
  Solubility 2 hours: > 2000 µg/mL
  pH of solution, 2 hours: 4.12
[2]; [14]
  Solubility 0.5 hours: >2000 µg/mL
  Solubility 2 hours: > 2000 µg/mL
  pH of solution, 2 hours: 6.44
[2]; ES4: Water
  Solubility 0.5 hours: >2000 µg/mL
  Solubility 2 hours: > 2000 µg/mL
  pH of solution, 2 hours: 2.78
[2]; [15]
  Solubility 0.5 hours: >2000 µg/mL
  Solubility 2 hours: > 2000 µg/mL
  pH of solution, 2 hours: 5.37
[3]; 0% RH, DVS 25° C.
  Desorp. (%) Cycle 1: 0.00%
  Desorp. (%) Cycle 2: 0.00%
  Sorp. (%) Cycle 1: 0.00%
  Sorp. (%) Cycle 2: 0.00%
[3]; 10% RH, DVS 25° C.
  Desorp. (%) Cycle 1: 0.07%
  Desorp. (%) Cycle 2: 0.07%
  Sorp. (%) Cycle 1: 0.07%
  Sorp. (%) Cycle 2: 0.07%
[3]; 20% RH, DVS 25° C.
  Desorp. (%) Cycle 1: 0.15%
  Desorp. (%) Cycle 2: 0.15%
  Sorp. (%) Cycle 1: 0.14%
  Sorp. (%) Cycle 2: 0.14%
[3]; 30% RH, DVS 25° C.
  Desorp. (%) Cycle 1: 0.23%
  Desorp. (%) Cycle 2: 0.23%
  Sorp. (%) Cycle 1: 0.22%
  Sorp. (%) Cycle 2: 0.22%
[3]; 40% RH, DVS 25° C.
  Desorp. (%) Cycle 1: 0.30%
  Desorp. (%) Cycle 2: 0.32%
  Sorp. (%) Cycle 1: 0.29%
  Sorp. (%) Cycle 2: 0.30%
[3]; 40-0-95-0-40% RH
  XRPD after DVS test: No form change
[3]; 50% RH, DVS 25° C.
  Desorp. (%) Cycle 2: 0.41%
  Sorp. (%) Cycle 1: 0.39%
[3]; 60% RH, DVS 25° C.
  Desorp. (%) Cycle 2: 0.52%
  Sorp. (%) Cycle 1: 0.47%
[3]; 70% RH, DVS 25° C.
  Desorp. (%) Cycle 2: 0.67%
  Sorp. (%) Cycle 1: 0.59%
[3]; 80% RH, DVS 25° C.
  Desorp. (%) Cycle 2: 0.81%
  Sorp. (%) Cycle 1: 0.71%
[3]; 90% RH, DVS 25° C.
  Desorp. (%) Cycle 2: 0.97%
  Sorp. (%) Cycle 1: 0.92%
[3]; 95% RH, DVS 25° C.
  Desorp. (%) Cycle 2: 1.01%
  Sorp. (%) Cycle 1: 1.01%
[3]; DVS 25° C.
  Hygroscopicity: slightly hygroscopic
[3]; cycle 40-0-95-0-40% RH
  XRPD after DVS test: No form change
[3]; up to 95% RH, DVS 25° C.
  Water uptake: about 1.0%
[4]; PS1: IPA
  Crystal modification after 1 week equilibration (XRPD): Compound V Pattern 2
[4]; PS2: Heptanes
  Crystal modification after 1 week equilibration (XRPD): Compound III Pattern 2
[4]; PS3: Water
  Crystal modification after 1 week equilibration (XRPD): Compound III Pattern 3
[4]; PS4: ACN
  Crystal modification after 1 week equilibration (XRPD): Compound III Pattern 4
[4]; PS5: MEK
  Crystal modification after 1 week equilibration (XRPD): Compound III Pattern 5
[4]; PS7: IPA/heptanes (3/10, v/v)
  Crystal modification after 1 week equilibration (XRPD): Compound III Pattern 2
[4]; PS8: water/ACN (2.9/97.1, v/v)
  Crystal modification after 1 week equilibration (XRPD): Compound III Pattern 4
[4]; PS9: IPA/MTBE (1/3, v/v)
  Crystal modification after 1 week equilibration (XRPD): Compound III Pattern 6
[4]; PS10: EA/toluene (1/3, v/v)
  Crystal modification after 1 week equilibration (XRPD): Compound III Pattern 2
